Data from BindingDB's records for doi:10.1021/acs.jmedchem.5b01828 (University of Macau, 2016).

What was measured:
[1] = target: T1, [Pyruvate dehydrogenase (acetyl-transferring)] kinase isozyme 1, mitochondrial (Homo sapiens, UniProt Q15118); experiment: Competitive binding affinity to recombinant N-terminal 6xHis-SUMO-tagged human PDK1 (29 to 436 residues) expressed in Escherichia coli BL-21 assessed as Kd of AZD7545 at 50 uM by isothermal titration calorimetric method (Rvb = 290.6 nM)
[2] = target: T1, [Pyruvate dehydrogenase (acetyl-transferring)] kinase isozyme 1, mitochondrial; experiment: Competitive binding affinity to recombinant N-terminal 6xHis-SUMO-tagged human PDK1 (29 to 436 residues) expressed in Escherichia coli BL-21 assessed as Kd of ADP at 50 uM by isothermal titration calorimetric method (Rvb = 4.27 uM)

T1 sequence (Q15118 whole entry, the tested form may be a part): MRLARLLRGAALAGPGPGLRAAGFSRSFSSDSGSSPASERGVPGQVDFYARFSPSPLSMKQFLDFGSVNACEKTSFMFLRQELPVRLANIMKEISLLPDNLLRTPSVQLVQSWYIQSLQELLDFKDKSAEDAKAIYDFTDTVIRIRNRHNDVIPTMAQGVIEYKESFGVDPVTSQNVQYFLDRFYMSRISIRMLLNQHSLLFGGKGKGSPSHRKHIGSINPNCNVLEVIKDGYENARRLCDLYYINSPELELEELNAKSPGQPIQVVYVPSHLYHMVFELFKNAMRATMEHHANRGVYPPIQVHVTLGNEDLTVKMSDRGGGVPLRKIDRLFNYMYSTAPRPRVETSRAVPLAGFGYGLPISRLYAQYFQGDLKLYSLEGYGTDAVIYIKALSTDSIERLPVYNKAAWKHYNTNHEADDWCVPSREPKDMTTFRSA

Kd [1]: 291 nM
Kd [2]: 7.87 µM
Compound: O=C(Nc1ccc(Cl)c(C(F)(F)F)c1)C(Cl)Cl
